Patent publication US20250360145A1, “CSF-1R INHIBITORS AND USES THEREOF” (Myrobalan Therapeutics, Inc., priority 2022, published 2025)

Assays:
CSF-1R = CSF-1R (Homo sapiens (Human), UniProt P07333); assay: Biochemical HTRF kinase assay, CSF-1R; conditions: recombinant human CSF-1R;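 further: enzyme incubated with inhibitor plus a substrate and ATP mix for one hour at room temperature before HTRF detection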
c-Kit = c-Kit (Homo sapiens (Human), UniProt P10721); assay: Biochemical HTRF kinase assay, c-Kit; conditions: for IC50: recombinant human protein, read-out: cKit IC50; for cKit Fold: selectivity: IC50 of cKit as multiple of IC50 of CSF-1R;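 on all read-outs here: enzyme reaction with substrate and ATP run in 384-well plates for 1 hour at room temperature, kinase activity detected by HTRF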
FLT3 = FLT3 (Homo sapiens (Human), UniProt P36888); assay: Biochemical HTRF kinase assay, FLT3; conditions: for IC50: recombinant human protein; for FLT3 Fold: selectivity: IC50 of FLT3 as multiple of IC50 of CSF-1R
PDGFRβ = PDGFRβ (Homo sapiens (Human), UniProt P09619); assay: Biochemical HTRF kinase assay, PDGFRβ; conditions: for IC50: recombinant human protein, read-out: PDGFR-1β IC50; for PDGFR-1β Fold: selectivity: IC50 of PDGFR-1β as multiple of IC50 of CSF-1R;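 on all read-outs here: kinase reaction with substrate/ATP mix run 1 h at room temperature in 384-well format, HTRF signal detection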
[1] = system: Ba/F3_CSF-1R (stably expressing human CSF-1R kinase); assay: Cell proliferation assay, Ba/F3_CSF-1R; format: cell-based; conditions: BaF3, 72 h, Ba/F3_CSF-1R cells, 72 hours treatment; read-out: CSF-1R BaF3 EC50
EOC2 cell = assay: Cell proliferation assay, EOC2; format: cell-based, mouse; conditions: Mus musculus, 72 h, EOC2 cells, 72 hours treatment; read-out: ECO2 EC50

c-Kit, sequence (P10721 26-976): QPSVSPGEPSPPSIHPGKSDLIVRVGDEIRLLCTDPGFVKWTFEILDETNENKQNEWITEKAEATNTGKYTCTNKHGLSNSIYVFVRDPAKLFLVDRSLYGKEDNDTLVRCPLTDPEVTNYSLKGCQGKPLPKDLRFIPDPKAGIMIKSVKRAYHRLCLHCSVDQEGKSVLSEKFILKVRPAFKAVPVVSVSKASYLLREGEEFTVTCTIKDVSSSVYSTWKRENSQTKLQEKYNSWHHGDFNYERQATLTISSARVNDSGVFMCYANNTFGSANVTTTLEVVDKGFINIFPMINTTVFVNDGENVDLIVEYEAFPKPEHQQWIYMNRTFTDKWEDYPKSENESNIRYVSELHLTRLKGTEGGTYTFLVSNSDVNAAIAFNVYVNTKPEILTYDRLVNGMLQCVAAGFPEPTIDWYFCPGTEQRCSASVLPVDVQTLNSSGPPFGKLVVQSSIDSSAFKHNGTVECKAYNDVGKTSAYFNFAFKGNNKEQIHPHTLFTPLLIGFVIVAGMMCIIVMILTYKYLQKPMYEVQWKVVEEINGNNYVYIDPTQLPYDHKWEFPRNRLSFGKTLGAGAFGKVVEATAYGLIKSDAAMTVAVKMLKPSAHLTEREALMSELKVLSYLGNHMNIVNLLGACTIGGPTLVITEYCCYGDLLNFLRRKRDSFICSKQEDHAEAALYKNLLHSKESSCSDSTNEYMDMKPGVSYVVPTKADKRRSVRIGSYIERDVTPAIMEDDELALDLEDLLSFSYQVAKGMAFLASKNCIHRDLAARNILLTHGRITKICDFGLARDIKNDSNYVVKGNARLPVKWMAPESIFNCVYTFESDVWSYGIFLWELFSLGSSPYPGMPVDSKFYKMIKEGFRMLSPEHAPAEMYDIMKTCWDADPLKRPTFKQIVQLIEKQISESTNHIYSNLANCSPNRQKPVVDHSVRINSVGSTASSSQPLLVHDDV
FLT3, sequence (P36888 27-993): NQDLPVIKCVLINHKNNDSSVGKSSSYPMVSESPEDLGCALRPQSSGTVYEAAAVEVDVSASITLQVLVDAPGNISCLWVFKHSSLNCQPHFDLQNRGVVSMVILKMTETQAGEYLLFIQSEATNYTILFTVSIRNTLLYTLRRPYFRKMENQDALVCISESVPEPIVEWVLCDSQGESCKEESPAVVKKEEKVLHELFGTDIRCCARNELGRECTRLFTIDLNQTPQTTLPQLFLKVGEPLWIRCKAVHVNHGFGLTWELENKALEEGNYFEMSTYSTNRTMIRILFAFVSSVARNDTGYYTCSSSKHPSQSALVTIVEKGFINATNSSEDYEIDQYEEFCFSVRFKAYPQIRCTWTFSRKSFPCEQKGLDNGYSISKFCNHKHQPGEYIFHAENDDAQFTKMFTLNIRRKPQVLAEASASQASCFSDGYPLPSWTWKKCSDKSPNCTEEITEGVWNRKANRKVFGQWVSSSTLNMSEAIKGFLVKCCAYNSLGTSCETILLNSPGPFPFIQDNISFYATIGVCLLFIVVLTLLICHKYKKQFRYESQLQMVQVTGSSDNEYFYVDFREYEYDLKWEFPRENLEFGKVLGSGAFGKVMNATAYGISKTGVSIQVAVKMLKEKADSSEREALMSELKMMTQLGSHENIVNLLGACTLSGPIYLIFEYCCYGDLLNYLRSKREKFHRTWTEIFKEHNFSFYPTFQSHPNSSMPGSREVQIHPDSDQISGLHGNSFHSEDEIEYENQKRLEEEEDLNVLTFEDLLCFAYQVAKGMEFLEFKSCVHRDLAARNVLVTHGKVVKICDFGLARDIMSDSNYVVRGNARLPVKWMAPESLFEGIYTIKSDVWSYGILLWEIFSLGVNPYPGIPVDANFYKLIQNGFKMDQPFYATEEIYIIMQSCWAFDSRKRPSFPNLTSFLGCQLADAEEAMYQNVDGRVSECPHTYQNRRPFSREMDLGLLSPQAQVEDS
CSF-1R, sequence (P07333 20-972): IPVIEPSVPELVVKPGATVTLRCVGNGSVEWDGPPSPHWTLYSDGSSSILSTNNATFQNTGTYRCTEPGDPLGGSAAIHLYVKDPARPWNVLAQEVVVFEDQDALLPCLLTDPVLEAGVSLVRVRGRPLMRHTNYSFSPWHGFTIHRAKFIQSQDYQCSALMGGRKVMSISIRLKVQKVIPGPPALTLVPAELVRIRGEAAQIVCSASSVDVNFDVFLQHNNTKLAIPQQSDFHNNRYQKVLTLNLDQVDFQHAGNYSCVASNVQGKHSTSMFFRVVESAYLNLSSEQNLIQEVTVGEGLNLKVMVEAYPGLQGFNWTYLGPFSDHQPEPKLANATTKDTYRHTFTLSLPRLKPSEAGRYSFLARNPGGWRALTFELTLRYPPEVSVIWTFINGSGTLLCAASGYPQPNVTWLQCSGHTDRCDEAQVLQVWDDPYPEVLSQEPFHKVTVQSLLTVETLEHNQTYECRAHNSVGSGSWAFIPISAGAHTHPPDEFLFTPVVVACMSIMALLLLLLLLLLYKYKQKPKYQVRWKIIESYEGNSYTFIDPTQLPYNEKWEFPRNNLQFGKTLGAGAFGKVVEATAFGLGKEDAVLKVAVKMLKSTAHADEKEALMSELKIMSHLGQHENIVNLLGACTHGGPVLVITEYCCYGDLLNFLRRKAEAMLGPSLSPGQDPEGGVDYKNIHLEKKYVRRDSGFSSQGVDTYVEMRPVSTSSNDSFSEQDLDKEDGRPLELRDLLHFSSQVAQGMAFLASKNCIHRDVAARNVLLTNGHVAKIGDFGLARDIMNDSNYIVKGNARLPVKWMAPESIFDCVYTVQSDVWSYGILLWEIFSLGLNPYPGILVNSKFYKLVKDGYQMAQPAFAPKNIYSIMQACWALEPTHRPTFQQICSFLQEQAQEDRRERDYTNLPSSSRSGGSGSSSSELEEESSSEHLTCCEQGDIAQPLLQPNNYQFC
PDGFRβ, sequence (P09619 33-1106): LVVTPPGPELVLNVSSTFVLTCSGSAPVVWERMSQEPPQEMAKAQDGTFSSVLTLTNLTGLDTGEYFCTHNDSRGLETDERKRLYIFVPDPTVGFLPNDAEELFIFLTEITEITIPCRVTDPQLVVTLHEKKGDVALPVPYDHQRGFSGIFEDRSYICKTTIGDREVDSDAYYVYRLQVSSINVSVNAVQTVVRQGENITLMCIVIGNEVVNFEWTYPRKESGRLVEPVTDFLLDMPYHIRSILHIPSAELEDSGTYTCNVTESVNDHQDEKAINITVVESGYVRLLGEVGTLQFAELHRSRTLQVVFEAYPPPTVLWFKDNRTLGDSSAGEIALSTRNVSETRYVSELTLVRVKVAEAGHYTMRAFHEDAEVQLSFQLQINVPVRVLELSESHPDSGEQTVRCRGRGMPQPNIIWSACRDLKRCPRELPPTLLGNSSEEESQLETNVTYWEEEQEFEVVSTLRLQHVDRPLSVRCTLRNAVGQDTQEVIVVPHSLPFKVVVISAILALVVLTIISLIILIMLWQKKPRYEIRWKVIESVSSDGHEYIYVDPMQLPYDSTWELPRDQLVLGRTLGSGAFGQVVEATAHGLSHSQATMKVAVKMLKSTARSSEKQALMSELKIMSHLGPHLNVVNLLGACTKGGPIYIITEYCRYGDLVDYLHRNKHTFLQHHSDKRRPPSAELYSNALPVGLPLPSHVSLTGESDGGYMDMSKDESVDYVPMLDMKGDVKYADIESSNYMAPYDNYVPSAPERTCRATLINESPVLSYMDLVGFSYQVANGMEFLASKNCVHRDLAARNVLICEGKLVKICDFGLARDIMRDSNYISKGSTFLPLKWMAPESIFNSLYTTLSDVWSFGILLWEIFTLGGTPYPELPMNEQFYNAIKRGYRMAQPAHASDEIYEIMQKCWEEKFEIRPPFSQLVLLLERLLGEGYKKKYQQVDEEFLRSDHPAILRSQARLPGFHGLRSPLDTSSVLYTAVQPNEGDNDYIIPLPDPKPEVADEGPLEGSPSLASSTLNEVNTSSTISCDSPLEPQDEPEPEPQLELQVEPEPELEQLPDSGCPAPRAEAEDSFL

Compound	IC50 (CSF-1R; Table 2) [µM]	IC50 (CSF-1R; Table 3) [µM]	IC50 (c-Kit) [µM]	cKit Fold (c-Kit) [fold]	IC50 (FLT3) [µM]	FLT3 Fold (FLT3) [fold]	IC50 (PDGFRβ) [µM]	PDGFR-1β Fold (PDGFRβ) [fold]	EC50 [1] [µM]	EC50 (EOC2 cell) [µM]
COc1cnc2c(Cc3cnc(OCc4ccc(OC(F)F)cn4)c(OC)c3)ccnc2c1 [Example 56]	0.0022	0.0022	> 1	>100	> 1	>100	0.312	>100	0.131	0.0312
COc1cnc2c(Cc3cnc(OCc4ccc(C5CC5)cn4)c(OC)c3)ccnc2c1 [Example 59]	0.0044	0.0044	> 1	>100	> 1	>100	0.349	79	0.0415	0.0423
COc1cnc2c(Cc3cnc(OCc4ccc(C5CC5(F)F)cn4)c(OC)c3)ccnc2c1 (stereo not shown) [Example 66]	0.003	0.003	0.948	>100	> 1	>100	0.0736	24.5	0.0891	0.0627
COc1cnc2c(Cc3cnc(OCc4cc5n(n4)CCC5)c(OC)c3)ccnc2c1 [Example 72]	0.0022	0.0022	> 1	>100	> 1	>100	> 1	>100	0.0746	0.0589
[2H]C([2H])([2H])Oc1cc(Cc2ccnc3cc(OC)cnc23)cnc1OCc1ccc(OC)cn1 [Example 74]	0.0033	0.0033	> 1	>100	> 1	>100	> 1	>100	0.1	0.0333
[2H]C([2H])([2H])Oc1ccc(COc2ncc(Cc3ccnc4cc(OC)cnc34)cc2OC)nc1 [Example 78]	0.0067	0.0067	> 1	>100	> 1	>100	0.947	>100	0.143	0.0484
[2H]C([2H])([2H])Oc1cnc2c(Cc3cnc(OCc4ccc(OC)cn4)c(OC)c3)ccnc2c1 [Example 79]	0.0036	0.0036	> 1	>100	> 1	>100	0.684	>100	0.118	0.0604
COc1cnc2c(Cc3cnc(OCc4cc(C)n(C)n4)c(OC)c3)ccnc2c1 [Example 82]	0.0046	0.0046	> 1	>100	> 1	>100	> 1	>100	0.161	0.116
COc1cnc2c(Cc3cnc(OCc4cc(C(C)C)no4)c(OC)c3)ccnc2c1 [Example 83]	0.0012	0.0012	> 1	>100	> 1	>100	0.158	>100	0.0267	0.037
COc1cnc2c(Cc3cnc(OCc4cnc5c(c4)OCCN5C)c(OC)c3)ccnc2c1 [Example 87]	0.00083	0.00083	> 1	>100	> 1	>100	0.208	>100	0.0863	0.092
COc1cnc2c(Cc3cnc(OCc4cc(C)n(C5COC5)n4)c(OC)c3)ccnc2c1 [Example 88]	0.0049	0.0049	> 1	>100	> 1	>100	> 1	>100	0.0767	0.116
COc1cnc2c(Cc3cnc(OCc4cc(C(C)C)n(C)n4)c(OC)c3)ccnc2c1 [Example 93]	0.0021	0.0021	> 1	>100	> 1	>100	> 1	>100	0.0729	0.0183
COc1ccc(COc2ncc(Cc3ccnc4cc(N(C)C)cnc34)cc2OC)nc1 [Example 100, 8-((5-methoxy-6-((5-methoxypyridin-2-yl)methoxy)pyridin-3-yl)methyl)-N,N-dimethyl-1,5-naphthyridin-3-amine]	0.0022	0.0022	0.875	>100	> 1	>100	0.378	>100	0.0171	0.01
COc1cnc2c(Cc3cnc(OCc4cc5n(n4)CC4CC54)c(OC)c3)ccnc2c1 (stereo not shown) [Example 101]	0.0019	0.0019	0.715	>100	> 1	>100	0.839	>100	0.0777	0.0483
COc1cnc2c(Cc3cnc(OCc4cc5n(n4)C[C@H](F)C5)c(OC)c3)ccnc2c1 [Example 112]	0.0047	0.0047	> 1	>100	> 1	>100	0.874	>100	0.168	0.102
COc1cnc2c(Cc3cnc(OCc4cc5n(n4)C[C@@H](OC)C5)c(OC)c3)ccnc2c1 [Example 121]	0.0199	0.0199	> 1	>50	> 1	>50	> 1	>50	0.0411	0.0152
